Data from US8303979B2, “Dietary modifications to improve fertility” (Nutreco Nederland B.V., priority 2001, dated 2012).

System: sows
Assay: Oral L-arginine supplementation of sows during pregnancy
Assay type: in vivo, pigs
Method: The experiment was performed with 197 sows that had already produced at least one litter. Sows in the control group (n=95) received a normal diet during gestation. Sows in the L-arginine group (n=102) received a normal diet from insemination until day 13 of pregnancy, an L-arginine supplemented diet from day 14 until day 31, again the control diet from day 32 until day 104 and again the L-arginine supplemented diet from day 105 until farrowing.
The L-arginine supplemented diet was the same as the control diet, except for the addition of 10 g L-arginine per kg.

SMILES: N=C(N)NCCC[C@H](N)C(=O)O [L-arginine]
- Sows (litters) with stillborn piglets (41 sows of the L-arginine group, same percentage as control): 47.1%
- Average number of stillborn piglets in litters with stillborn piglets (not significantly different from control): 1.86±0.22
- Birth weight NBA corrected for LS (piglets born alive, corrected for litter size): 1597 ± 24 g
- Birth weight NBA (piglets born alive, not corrected for litter size): 1584 ± 27 g
- Total number born + mummies (piglets per litter, corrected for parity, L-arginine diet day 14-31 and day 105 until farrowing, p<0.05 vs control): 12.74 ± 0.31
- Total number born (TNB) (piglets per litter, L-arginine diet day 14-31 and day 105 until farrowing, p<0.05 vs control): 12.69 ± 0.31
- Number born alive (NBA) (piglets per litter, L-arginine diet day 14-31 and day 105 until farrowing, p=0.055 vs control): 11.77 ± 0.30^+
- Birth weight TNB corrected for LS (piglets, total number born, corrected for litter size): 1578 ± 23 g
- Birth weight TNB (piglets, total number born, not corrected for litter size): 1563 ± 27 g
- Farrowing rate (sows, diet with 10 g L-arginine per kg added, day 14-31 and day 105 until farrowing, 87/102): 85%
- Effect on litter size (total number born and number born alive), piglets extra (versus control group): ~1 piglet
